Laboratory results as given in ChEMBL document CHEMBL2034954, “Synthesis and antimycobacterial activity of novel 1,3-dimethylisocyanurate derivatives” (Eur J Med Chem, 2012).
Values after ≈ are worked out from the molar mass of the structure shown. Active and inactive are the calls of the source. The calls are words filed in the database; no cut-off is given here.

Columns and labels:
[1] = tested on: Mycobacterium tuberculosis; assay: Antitubercular activity against Mycobacterium tuberculosis H37Rv after […] by radiometric growth assay; type: functional
[2] = tested on: Mycobacterium tuberculosis; assay: Bacteriostatic activity against Mycobacterium tuberculosis H37Rv at 0.1 ug/mL assessed as growth index after 4 days by radiometric growth assay (reference value: 210 growth index); type: functional
[3] = tested on: Mycobacterium tuberculosis; assay: Bacteriostatic activity against Mycobacterium tuberculosis H37Rv at 0.1 ug/mL assessed as growth index after 3 days by radiometric growth assay (reference value: 210 growth index); type: functional
[4] = tested on: Mycobacterium tuberculosis; assay: Bacteriostatic activity against Mycobacterium tuberculosis H37Rv at 0.1 ug/mL assessed as growth index after 5 days by radiometric growth assay (reference value: 210 growth index); type: functional
[5] = tested on: Mycobacterium tuberculosis; assay: Bacteriostatic activity against Mycobacterium tuberculosis H37Rv at 0.1 ug/mL assessed as growth index after 7 days by radiometric growth assay (reference value: 210 growth index); type: functional
[6] = tested on: Mycobacterium tuberculosis; assay: Bacteriostatic activity against Mycobacterium tuberculosis H37Rv at 1 ug/mL assessed as growth index after 10 days by radiometric growth assay (reference value: 210 growth index); type: functional
[7] = tested on: Mycobacterium tuberculosis; assay: Bacteriostatic activity against Mycobacterium tuberculosis H37Rv at 1 ug/mL assessed as growth index after 7 days by radiometric growth assay (reference value: 210 growth index); type: functional
[8] = tested on: Mycobacterium tuberculosis; assay: Bacteriostatic activity against Mycobacterium tuberculosis H37Rv at 1 ug/mL assessed as growth index after 3 days by radiometric growth assay (reference value: 210 growth index); type: functional
[9] = tested on: Mycobacterium tuberculosis; assay: Bacteriostatic activity against Mycobacterium tuberculosis H37Rv at 1 ug/mL assessed as growth index after 5 days by radiometric growth assay (reference value: 210 growth index); type: functional
[10] = tested on: Mycobacterium tuberculosis; assay: Bacteriostatic activity against Mycobacterium tuberculosis H37Rv at 1 ug/mL assessed as growth index after 4 days by radiometric growth assay (reference value: 210 growth index); type: functional
[11] = tested on: Mycobacterium tuberculosis; assay: Bacteriostatic activity against Mycobacterium tuberculosis H37Rv at 5 ug/mL assessed as growth index after 5 days by radiometric growth assay (reference value: 210 growth index); type: functional
[12] = tested on: Mycobacterium tuberculosis; assay: Bacteriostatic activity against Mycobacterium tuberculosis H37Rv at 5 ug/mL assessed as growth index after 3 days by radiometric growth assay (reference value: 210 growth index); type: functional
[13] = tested on: Mycobacterium tuberculosis; assay: Bacteriostatic activity against Mycobacterium tuberculosis H37Rv at 5 ug/mL assessed as growth index after 4 days by radiometric growth assay (reference value: 210 growth index); type: functional
[14] = tested on: Mycobacterium tuberculosis; assay: Bacteriostatic activity against Mycobacterium tuberculosis H37Rv at 5 ug/mL assessed as growth index after 7 days by radiometric growth assay (reference value: 210 growth index); type: functional
[15] = tested on: Mycobacterium tuberculosis; assay: Bacteriostatic activity against Mycobacterium tuberculosis H37Rv at 0.5 ug/mL assessed as growth index after 3 days by radiometric growth assay (reference value: 210 growth index); type: functional
[16] = tested on: Mycobacterium tuberculosis; assay: Bacteriostatic activity against Mycobacterium tuberculosis H37Rv at 0.5 ug/mL assessed as growth index after 4 days by radiometric growth assay (reference value: 210 growth index); type: functional
[17] = tested on: Mycobacterium tuberculosis; assay: Bacteriostatic activity against Mycobacterium tuberculosis H37Rv at 0.5 ug/mL assessed as growth index after 5 days by radiometric growth assay (reference value: 210 growth index); type: functional
[18] = tested on: Mycobacterium tuberculosis; assay: Bacteriostatic activity against Mycobacterium tuberculosis H37Rv at 0.5 ug/mL assessed as growth index after 7 days by radiometric growth assay (reference value: 210 growth index); type: functional
[19] = tested on: Mycobacterium tuberculosis; assay: Bacteriostatic activity against Mycobacterium tuberculosis H37Rv at 5 ug/mL assessed as growth index after 10 days by radiometric growth assay (reference value: 210 growth index); type: functional
[20] = tested on: Mycobacterium tuberculosis; assay: Antitubercular activity against Mycobacterium tuberculosis H37Rv at 10 ug/mL by radiometric growth assay; type: functional, organism-based
[21] = tested on: Mycobacterium tuberculosis; assay: Bacteriostatic activity against Mycobacterium tuberculosis H37Rv at 0.5 ug/mL assessed as growth index after 10 days by radiometric growth assay (reference value: 210 growth index); type: functional
[22] = tested on: Mycobacterium tuberculosis; assay: Bacteriostatic activity against Mycobacterium tuberculosis H37Rv at 0.1 ug/mL assessed as growth index after 10 days by radiometric growth assay (reference value: 210 growth index); type: functional

Compound | MIC [1] [µg/mL] | Growth_index [6] | Growth_index [7] | Growth_index [8] | Growth_index [9] | Growth_index [10] | also measured
Cn1c(=O)n(C)c(=O)n(CS(=O)(=O)CC(N)=O)c1=O | 1 (≈ 3.42 µM) | – | – | – | – | – | –
Cn1c(=O)n(C)c(=O)n(CCCCCCS(=O)(=O)CC(=O)NN)c1=O | 0.1 (≈ 0.265 µM) | – | – | – | – | – | Growth_index [2]: 27; Growth_index [3]: 15; Growth_index [4]: 31; Growth_index [5]: >90
Cn1c(=O)n(C)c(=O)n(CCC[S+]([O-])CC(=O)NN)c1=O (configuration not stated) | 1 (≈ 3.13 µM) | 55 | 5 | 5 | 5 | 5 | –
Cn1c(=O)n(C)c(=O)n(CCCCCC[S+]([O-])CC(=O)NN)c1=O (configuration not stated) | 0.5 (≈ 1.38 µM) | – | >90 | 10 | 15 | 15 | –
Cn1c(=O)n(C)c(=O)n(CCCCS(=O)(=O)CC(N)=O)c1=O | 1 (≈ 2.99 µM) | 54 | 54 | 20 | 54 | 35 | –
Cn1c(=O)n(C)c(=O)n(C[S+]([O-])CC(=O)NN)c1=O (configuration not stated) | 1 (≈ 3.43 µM) | – | >90 | 15 | 78 | 48 | Growth_index [11]: 67; Growth_index [12]: 10; Growth_index [13]: 17; Growth_index [14]: >90
Cn1c(=O)n(C)c(=O)n(CCCCCS(=O)(=O)CC(=O)NN)c1=O | 0.5 (≈ 1.38 µM) | 50 | 50 | 14 | 50 | 50 | Growth_index [15]: 12; Growth_index [16]: 33; Growth_index [17]: 50; Growth_index [18]: >90
Cn1c(=O)n(C)c(=O)n(CCCCCC[S+]([O-])CC(N)=O)c1=O (configuration not stated) | 1 (≈ 2.89 µM) | >90 | 54 | 25 | 47 | 45 | Growth_index [11]: 42; Growth_index [12]: 15; Growth_index [13]: 31; Growth_index [19]: 66; Growth_index [14]: 66
CC1COc2c(N3CCN(C)CC3)c(F)cc3c(=O)c(C(=O)O)cn1c23 (configuration not stated) | – | – | – | – | – | – | Activity [20]: Active
Cn1c(=O)n(C)c(=O)n(CCCS(=O)(=O)CC(N)=O)c1=O | 1 (≈ 3.12 µM) | 39 | 39 | 20 | 39 | 29 | –
Cn1c(=O)n(C)c(=O)n(CS(=O)(=O)CC(=O)NN)c1=O | 0.1 (≈ 0.325 µM) | 20 | 20 | 20 | – | 20 | Growth_index [15]: 25; Growth_index [2]: 43; Growth_index [16]: 41; Growth_index [17]: 52; Growth_index [18]: 52; Growth_index [3]: 35; Growth_index [4]: 47; Growth_index [21]: 52; Growth_index [5]: 47; Growth_index [22]: 47
Cn1c(=O)n(C)c(=O)n(CCS(=O)(=O)CC(=O)NN)c1=O | 0.5 (≈ 1.56 µM) | 33 | 33 | 18 | 33 | 24 | Growth_index [15]: 25; Growth_index [16]: 40; Growth_index [17]: 40; Growth_index [18]: 40; Growth_index [21]: 53
Cn1c(=O)n(C)c(=O)n(CCCCCS(=O)(=O)CC(N)=O)c1=O | 1 (≈ 2.87 µM) | 23 | 23 | 15 | 23 | 20 | –
